Reference: patent publication US20220372014A1, “NEUROPROTECTIVE COMPOUNDS AND METHODS OF USE THEREOF” (The Johns Hopkins University, priority 2019, published 2022)

Key:
mouse cortical neurons = assay: Pulsed-field gel electrophoresis of α-syn PFF-induced DNA damage in mouse cortical neurons; type: cell-based
Protocol: Preparation and quantification of genomic DNA. The striatum was rapidly removed from the brain and lysed by repetitive pipetting with a micropipette in lysis buffer [100 mM NaCl, 10 mM Tris-HCl (pH 8.0), 25 mM EDTA (pH 8.0), 0.5% SDS] with 0.2 mg/ml proteinase K (Roche Diagnotics). Samples were incubated 55° C. for overnight and further incubated 85° C. for 45 m to inactivate proteinase K. The genomic DNA were immediately separated on a 1.2% pulse field certified agarose in 0.5×TBE buffer with initial switch time of 1.5 s and a final switch time of 3.5 s for 12 h at 6 V/cm. The gel was then stained with […] Ethidium Bromide (EtBr) and visualized on UV light. Noncleaved genomic DNA was quantified as percentage (%) of the total genomic DNA that included both noncleaved genomic DNA and cleaved genomic DNA in each individual group.
Cell culture, transfection, primary neuronal culture and treatment. SH-SY5Y cells (ATCC) were cultured in DMEM containing 10% fetal bovine serum and penicillin/streptomycin at 37° C. under 5% C02. The cells were transfected using PolyFect reagent (Qiagen). Parthanatos was induced by the treatment of 50 μM MNNG for 15 min in SH-SY5Y cells. ABT-888 or PAAN/MIF inhibitors were pretreated with indicated concentration 1 h before MNNG treatment and cell death were assessed after 24 h. […]

[1] = Measurement of compounds in brain after oral gavage (HPLC-MS); type: in vivo, C57BL/6 mice; conditions: oral gavage 10 mg/kg
Protocol: The concentrations of compounds in brain tissue were measured by LC/MS. […] Bars represent means±s.e.m. ***P<0.0005, two-way ANOVA followed by Tukey's post hoc test (n=3). […] Quantification of noncleaved substrate. Bars represent mean±s.e.m. ***P<0.0005, two-way ANOVA followed by Tukey's post hoc test (n=4). […] Intensity of noncleaved genomic DNA is shown in the graph. Bars represent mean±s.e.m. ***P<0.0005, two-way ANOVA followed by Tukey's post hoc test (n=4).
Measurement of compound 121 in brain. Compound 56, compound 77, and compound 121 were resuspended in a vehicle solution and were administered at 10 mg/kg by oral gavage. After 2 h, mice were perfused with PBS and whole brain was isolated, weighed and grounded with a pestle to a very fine powder with liquid nitrogen. Then, 2-folds of acetonitrile were added to brain tissue sample and the mixture was centrifuged at 14,000 rpm, 4° C. for 10 m. The supernatant was used for analysis. The concentration of compounds in brain tissue were measured using HPLC-MS on a C-18 reverse phase HPLC column. Separations were achieved using a linear gradient of buffer B from 40% to 95% in A (A=0.1% formic acid in H20; B=0.1% formic acid in CH3CN) at a flow rate of 1 ml/min. Intracerebroventricular (ICV) injected brain samples at 0.5, 1, 2, 4 or 8 μM concentration were used for the standard curve.

EcoRV = EcoRV (Escherichia coli, UniProt P04390); assay: In vitro nuclease assay of EcoRV (pcDNA3 substrate); type: biochemical
Sequence of EcoRV (P04390 whole entry): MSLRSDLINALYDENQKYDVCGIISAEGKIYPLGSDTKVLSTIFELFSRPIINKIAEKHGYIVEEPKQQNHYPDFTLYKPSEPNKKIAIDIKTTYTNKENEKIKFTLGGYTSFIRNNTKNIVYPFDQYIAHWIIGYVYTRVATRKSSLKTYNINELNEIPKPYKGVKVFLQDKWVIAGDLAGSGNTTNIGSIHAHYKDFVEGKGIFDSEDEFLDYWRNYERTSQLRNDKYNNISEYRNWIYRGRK
Protocol: Nuclease assay. Purified PAAN/MIF protein (4 μM) was incubated with compounds (10 μM) in the nuclease buffer [10 mM Tris-C1 (pH 7.0) and 10 mM MgCl2] for 20 m on ice. Then samples were added with 1 μM of PAAN/MIF substrate (PS30 or RF) and incubated for 1 h at 37° C. The reaction was terminated with loading buffer containing 10 mM EDTA and separated on 15% TBE-urea polyacrylamide (PAGE) gel or 20% TBE PAGE gel. For other nucleases (EcoRI and EcoRV) assays, pcDNA3 (500 ng/reaction) was used as a substrate and 0.01 unit of Exonulcase III were incubated with small dsDNA (Sequence ID NO 4:5′-[…]-3′ and Sequence ID NO 5:5′-[…]-3′).

PAAN/MIF WT or variants = target: T1, PAAN/MIF WT or variants (Homo sapiens, UniProt P14174); assay: Biolayer interferometry (ForteBio Octet) binding assay; conditions: PAAN/MIF WT
T1 construct: made in house; host or cells: Escherichia coli
Source text: Purification of PAAN/MIF recombinant proteins. Human PAAN/MIF (NM_002415) cDNA and its variants were subcloned into pGEX-6β-1 vector (GE Healthcare) and mutants were generated using a QuikChange site-directed mutagenesis kit (Stratagene). The sequences were confirmed by automated DNA sequencing. The protein was expressed and purified from Escherichia coli by glutathione sepharose (GE Healthcare). The GST tag was subsequently proteolytically removed. GST protein was used as a negative control in the nuclease assay and PAAN/MIF proteins purified by FPLC using Superdex 200 10/300GL column (GE Healthcare, Life Sciences) were also used in the nuclease assays.
Biolayer interferometry assay. The dose-dependent binding of compound 121 for PAAN/MIF WT or PAAN/MIF variants were determined by a biolayer interferometry assay using Octet RED96 (ForteBio). See Guo et al. (2018) Nat. Chem. 11:254-63. All the proteins used in this assay were tagged with GST. Anti-GST biosensor tips (ForteBio) were used to immobilize the GST proteins after prewetting with 1X kinetic buffer (ForteBio). The equilibrated GST biosensors were loaded with PAAN/MIF WT or variants (25 μg/ml). Background binding controls were measured by sensors that were incubated in buffer without proteins. All assays were performed by a standard protocol in 96-well black plates (Greiner Bio) with a total volume of 200 μl per well. All the data were analyzed by Octet data analysis software.

| SMILES | genomic DNA cleavage in mouse cortical neurons treated with α-syn PFF (mouse cortical neurons) | ability to cross the blood brain barrier (BBB) ([1]; 2 h) | nuclease activity of EcoRV (EcoRV) | other results |
| --- | --- | --- | --- | --- |
| COc1ccc(CC[C@H]2OC(=O)[C@@H]3CCCCN3C(=O)C(=O)C(C)(C)COC(=O)C=CCCN(C)C(=O)[C@@H]3CCCN3C(=O)[C@H](COC(C)(C)C)N(C)C(=O)C(c3ccccc3)NC(=O)[C@H](C)N(C)C(=O)COc3cccc2c3)cc1OC (stereo partly drawn) [compound 56] | protected against genomic DNA cleavage | crossed the BBB | do not inhibit | concentration at 2 h ([1]; C57BL/6, mouse, brain, read-out: achievable concentration in brain): < 500 nM |
| COc1ccc(CC[C@H]2OC(=O)[C@@H]3CCCCN3C(=O)C(=O)C(C)(C)COC(=O)C=CCCN(C)C(=O)[C@@H]3CCCN3C(=O)[C@H](CO)N(C)C(=O)C(c3ccccc3)NC(=O)[C@H](C)N(C)C(=O)COc3cccc2c3)cc1OC (stereo partly drawn) [compound 97] |  |  |  | binding to PAAN/MIF (PAAN/MIF WT or variants): lack of binding |
| COc1ccc(CC[C@H]2OC(=O)[C@@H]3CCCCN3C(=O)C(=O)C(C)(C)COC(=O)C=CCCN(C)C(=O)[C@@H]3CCCN3C(=O)[C@H](COC(C)(C)C)N(C)C(=O)C(c3ccccc3)NC(=O)CN(C)C(=O)COc3cccc2c3)cc1OC (stereo partly drawn) [compound 41] |  |  | do not inhibit |  |
| COc1ccc(CC[C@H]2OC(=O)[C@@H]3CCCCN3C(=O)C(=O)C(C)(C)COC(=O)C=CCCN(C)C(=O)[C@H](C)NC(=O)[C@H](C(C)C)N(C)C(=O)[C@@H](Cc3ccccc3)NC(=O)[C@H](CC(C)C)N(C)C(=O)CCC(=O)Nc3cccc2c3)cc1OC [compound 77] |  | only compound 56 crossed the BBB | do not inhibit |  |
| COc1ccc(CC[C@H]2OC(=O)[C@@H]3CCCCN3C(=O)C(=O)C(C)(C)COC(=O)C=CCCN(C)C(=O)CNC(=O)[C@H](C(C)C)N(C)C(=O)[C@@H](Cc3ccccc3)NC(=O)[C@H](CC(C)C)N(C)C(=O)CCC(=O)Nc3cccc2c3)cc1OC [compound 76] |  |  | do not inhibit |  |
| COc1ccc(CC[C@H]2OC(=O)[C@@H]3CCCCN3C(=O)C(=O)C(C)(C)COC(=O)C=CCCN(C)C(=O)[C@@H]3CCCN3C(=O)[C@H](COC(C)(C)C)N(C)C(=O)C(c3ccccc3)NC(=O)[C@H](C)N(C)C(=O)COc3cc(F)cc2c3)cc1OC (mixture of isomers) [compound 121] | protected against genomic DNA cleavage |  |  | levels detected in the brain relative to compound 56 ([1]; 2 h): ~3 fold; Kd, binding affinity of PAAN/MIF (PAAN/MIF WT or variants): 1560 nM |
